Results taken from patent US7432045B2 (priority 2003, dated 2008).
Read-outs that look alike come from different tables or passages of the source. Peptide text beside a SMILES is read from it.

Columns and labels:
MTS assay = settings: human, CEMx174 cells (T-B hybridoma)
HSV-1 KOS mutant hrR3 = assay: LacZ+ virus (hrR3) entry assay with pre-adsorbed virus (entry block); format: cell-based
hrR3 virions = assay: Inactivation of virions in solution; format: cell-based, HSV-1; settings: 37° C.
Protocol: Inactivation of virions: To assess the ability of peptides to inactivate virions, 3-4×10^6 pfu/mL of virus was mixed on ice with peptide in serum-free DMEM and incubated for 1 h at 4 or 37° C. Aliquots (10 μL) were diluted 1000-fold into peptide-free serum-supplemented DMEM at 23° C. and 50 μL aliquots were assayed in triplicate for infectivity in Vero cell cultures (dilution assay). Alternatively, 10 μL aliquots were diluted into 1 mL of ice-cold peptide-free serum-supplemented DMEM and the virus was pelleted as described above (centrifugation assay). Viral pellets were then resuspended in 250 μL serum-supplemented DMEM and 50 μL aliquots were assayed in triplicate for infectivity in Vero cell cultures.
Some of the virus diluted without the addition of NaCl was pelleted immediately (Control), while the rest of the diluted virus was stored at 4° C. and pelleted 19 h later. The virus was pelleted and assayed for infectivity as described in Example 1.

| Compound | EC50 (MTS assay) | reduction of the number of lacZ+ cells (HSV-1 KOS mutant hrR3; 25 μM peptide, pre-adsorbed virus) | virus entry inhibited (HSV-1 KOS mutant hrR3; 50 μM, 1 hour periods between 1 and 4 hours post-infection) | IC50 (HSV-1 KOS mutant hrR3; FIG. 7B, read-out: inhibition of entry of pre-adsorbed virus IC50) | IC50 (HSV-1 KOS mutant hrR3; read-out: Entry Blocking Activity IC50) | cytotoxic effects (trypan blue staining) (MDCK cells) | concentration at which cytotoxic effects were seen first (Vero cells) | cytotoxic effects (trypan blue) in cellular resistance experiments (Vero cells) | IC50 (hrR3 virions; dilution or centrifugation, read-out: inactivation of virions IC50) | IC50 (hrR3 virions; read-out: Inactivation of Virions 37° C. IC50) | IC50 (HSV-1 KOS mutant hrR3; 33° C., read-out: Entry Block 33° C. IC50) | IC50 (HSV-1 KOS mutant hrR3; 33° C., read-out: Entry Block IC50) | IC50 (HSV-1 KOS mutant hrR3; 33° C., read-out: inhibition of entry IC50) | IC50 (HSV-1 KOS mutant hrR3; 37° C., read-out: Entry Block 37° C. IC50) | temperature dependence of inhibition of entry and virus inactivation (HSV-1 KOS mutant hrR3; FIGS. 16A, B) |
| --- | --- | --- | --- | --- | --- | --- | --- | --- | --- | --- | --- | --- | --- | --- | --- |
| CC(C)C[C@H](NC(=O)[C@H](C)NC(=O)[C@H](CC(C)C)NC(=O)[C@H](CC(C)C)NC(=O)[C@@H](NC(=O)[C@H](C)NC(=O)[C@@H]1CCCN1C(=O)[C@H](CC(C)C)NC(=O)[C@H](CC(C)C)NC(=O)[C@H](C)NC(=O)[C@@H](NC(=O)[C@H](C)NC(=O)[C@H](C)NC(=O)[C@H](CCCCN)NC(=O)[C@H](CCCCN)NC(=O)[C@H](CCCNC(=N)N)NC(=O)[C@@H](N)CCCNC(=N)N)C(C)C)C(C)C)C(=O)N[C@@H](CC(C)C)C(=O)N[C@@H](C)C(=O)N1CCC[C@H]1C(=O)O [EB] (H-RRKKAAVALLPAVLLALLAP-OH) | 50 µM | > 90% | 70-80% | 15 µM | 15 to 26 µM | No cytotoxic effects | 200 µM | No cytotoxic effects |  |  |  |  |  |  |  |
| N=C(N)NCCC[C@H](NC(=O)CN)C(=O)N[C@@H](CCCCN)C(=O)N[C@@H](CCCCN)C(=O)N[C@@H](CCCNC(=N)N)C(=O)N[C@@H](CCCNC(=N)N)C(=O)N[C@@H](CCC(N)=O)C(=O)N[C@@H](CCCNC(=N)N)C(=O)N[C@@H](CCCNC(=N)N)C(=O)N[C@@H](CCCNC(=N)N)C(=O)N[C@@H](CS)C(=O)O [TAT-C, NH2-GRKKRRQRRRC-COOH] |  |  |  |  |  |  |  |  | ~75 µM | 100 µM | 3 µM | 3 µM | 3 µM | 3.1 µM | completely temperature-independent |
